# Experimental data: paper PMC5038265 (Antimicrobial Agents and Chemotherapy, 2016)
# Like-named read-outs stand apart in the source and are kept apart here.
# Assays:
# [1] = biological target: M. tuberculosis LeuRS (Mycobacterium tuberculosis, UniProt P9WFV1); assay: biochemical; parameters: species or system M. tuberculosis H37Rv
# [2] = system: M. tuberculosis H37Rv; assay: MIC for M. tuberculosis H37Rv (resazurin/alamarBlue); assay type: cell-based, Mycobacterium tuberculosis; conditions: for MIC: Mycobacterium tuberculosis, H37RV, read-out: MIC M.tb H37Rv; for MIC values used in kill kinetics experiment: Fig. 6
# [3] = biological target: M. tuberculosis LeuRS editing domain (Mycobacterium tuberculosis, UniProt P9WFV1); assay: biochemical; assay type: binding
# Sequence of M. tuberculosis LeuRS editing domain (P9WFV1 309-513): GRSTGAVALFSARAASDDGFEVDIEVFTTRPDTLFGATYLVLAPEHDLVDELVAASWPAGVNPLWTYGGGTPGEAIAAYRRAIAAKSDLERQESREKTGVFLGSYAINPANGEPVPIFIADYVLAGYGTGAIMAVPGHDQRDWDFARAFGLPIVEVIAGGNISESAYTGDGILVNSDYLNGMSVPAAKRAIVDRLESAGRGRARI
# [4] = in vitro; assay type: in vitro ADME; conditions: mouse plasma, 1 and 10 µg/ml, ultrafiltration; read-out: Mouse PPB (converted)
# Description: Compounds were added to 1.5-ml aliquots of mouse plasma at concentrations of 1 and 10 µg/ml and then incubated in a shaking water bath at 37°C for 15 min. Both samples were treated similarly, and a 0.5-ml aliquot was removed from each tube and added to the filter reservoir of Microcon centrifugal filter devices (Ultracel YM-30 with a molecular mass cutoff of 30 kDa). The devices were centrifuged at 1,000 × g for 10 min, and 100 μl of the filtrate was transferred to a 96-well plate and diluted 5-fold. Ten-microliter volumes of the samples were injected and analyzed with the LC-MS/MS system. All samples were analyzed in duplicate. Quantitation was based on the peak area ratio of the analyte over the internal standard, and all integrations were performed with peak areas by using Analyst version 1.4.1 (Applied Biosystems, Foster City, CA, USA). Plasma protein binding was calculated based on the following equation: Plasma Protein Binding (%)=(PeakAreaPlasma UltrafilrateSpiked−PeakAreaPlasmaFiltrate)/PeakAreaPlasma UltrafiltrateSpiked×100
# [5] = system: Vero cells; assay: In vitro cytotoxicity assay (MTT); assay type: cell-based, African green monkey; conditions: Chlorocebus sabaeus, 72 h
# Description: Vero epithelial cells (from African green monkey; ATCC CCL-81) were cultured in Dulbecco's modified Eagle's medium (DMEM) supplemented with 10% fetal bovine serum (FBS) and maintained in a humidified incubator (37°C in 5% CO2). Cells were dislodged with a cell scraper, collected by centrifugation, resuspended in fresh medium at ∼10^6 cells/ml, dispensed into 96-well microtiter plates ([…]), and incubated for 18 h at 37°C. Twofold serial dilutions of test compounds in DMEM with FBS were subsequently added, and cells were incubated for another 72 h. In triplicate studies, the cytopathic effects of compounds were evaluated colorimetrically by using the 3-(4,5-dimethyl-2-thiazolyl)-2,5-diphenyl-2H-tetrazolium bromide (MTT) cell proliferation assay (ATCC). IC50 data were obtained from dose-response curves plotted by using GraphPad Prism 5.
# [6] = in vivo; conditions: for AUC(0-inf) / Cmax / MRT / Vd / clearance / half-life / AUC(0-t) / Tmax / bioavailability: in vivo; for α-t1/2 % AUC / β-t1/2 % AUC: i.v.
# Description: Mouse pharmacokinetic studies were conducted by using female CD-1 mice for compounds 1, 11, and 12, while BALB/c mice were used for compound 13. Mouse body weights were 19 to 28 g, and on the morning of dosing, mice were split randomly into 3 dosing groups to receive the test article by either intravenous (i.v.) tail vein injection or oral (p.o.) gavage. After dosing, blood samples were collected via cardiac puncture at specific time points (n = 3 mice/time point) through 24 h (K2EDTA as an anticoagulant) and processed for plasma. Antibiotic concentrations in the plasma samples were analyzed by liquid chromatography-tandem mass spectrometry (LC-MS/MS). The LC-MS/MS analysis was conducted by using analyte/internal standard peak area methods. The internal standard was AN3365 ([21]), and the instrument used was an API4000 QTRAP instrument (AB Sciex). The limit of quantitation (LOQ) was 1 or 2 ng/ml. Pharmacokinetic analyses of the mean plasma concentration-time profiles were performed by using WinNonlin Pro version 5.2. A compartmental model was used for the data for i.v. dosing, and a noncompartmental model was used for the data for p.o. dosing. […] Compounds 1 and 13 were formulated in saline (0.9% [wt/vol] NaCl) at 7.5 mg/ml, and the pH was adjusted to >5 by the addition of NaOH. Compound 11 was formulated to 6.5 mg/ml in water-dimethylacetamide-ethanol (EtOH) (76:19:5), and the pH was adjusted to >5 by the addition of NaOH. Compound 12 was formulated to 7.5 mg/ml in PEG 300-propylene glycol (PG)-water (55:25:20), and the pH was adjusted to >5 by the addition of NaOH.
# [7] = system: M. smegmatis ATCC 700084 and leuS resistant mutants; assay: Liquid culture MIC for compound 1-resistant M. smegmatis mutants; assay type: cell-based, Mycobacterium smegmatis; conditions: Mycolicibacterium smegmatis
# From the text: Mutants resistant to compound 1 were isolated on Middlebrook 7H10 medium plus 10% (vol/vol) oleic albumin dextrose catalase (OADC) supplement (Becton Dickinson) containing compound 1 at 4× MIC. Resistance was confirmed by measuring the mutant MIC values essentially as described previously by Collins and Franzblau ([17]).
# [8] = system: M. tuberculosis H37Rv; assay: microbe, parasite or virus in culture; assay type: cell-based; conditions: Mycobacterium tuberculosis, read-out: MIC on Middlebrook 7H10 agar
# [9] = system: HepG2 cells; assay: HepG2 cell viability (Janus green staining); assay type: cell-based; conditions: Homo sapiens, 168 h, HepG2, 7 days, read-out: Mean EC50 ± SD Cell viability
# Description: (§1) The human liver carcinoma-derived HepG2 cell line was obtained from the ATCC (ATCC HB-8065). HepG2 cells were grown in Dulbecco's modified Eagle's medium containing 10% fetal calf serum, 1 mM sodium pyruvate, 0.1 mM essential amino acids, and 50 U/ml penicillin-streptomycin at 37°C with 5% CO2. HepG2 cells were seeded into 96-well plates at 3,000 cells/200 μl/well in cell culture medium. Cells were then grown in the presence of the compounds at 37°C in 10% CO2 for 7 days in at least duplicate concentrations, with the medium and compounds being replaced on the fourth day. After 7 days, the levels of SDHA (subunit A of the succinate dehydrogenase complex) and COX1 (cytochrome c oxidase) were determined by using the MitoSciences In-Cell enzyme-linked immunosorbent assay (ELISA) kit. Janus green staining was used to determined cell viability after 7 days (In-Cell ELISA kit, catalog number MS643).
# [10] = system: M. tuberculosis H37Rv; parameters: species or system C57BL/6J mice; conditions: mouse, in vivo
# [11] = system: SDHA in HepG2 cells; assay: Mitochondrial protein synthesis assay, SDHA level; assay type: cell-based; conditions: Homo sapiens, 168 h; HepG2, 7 days; read-out: Mean EC50 ± SD SDHA
# Description: as §1
# [12] = system: COX1 in HepG2 cells; assay: Mitochondrial protein synthesis assay, COX1 level; assay type: cell-based; conditions: Homo sapiens, 168 h; HepG2, 7 days; read-out: Mean EC50 ± SD COX1
# Description: as §1
# [13] = system: M. tuberculosis H37Rv; assay type: in vivo, C57BL/6J mice; conditions: 30 mg/kg QD, 8 weeks, lungs
# [14] = system: M. tuberculosis H37Rv; assay: Time-kill assay; assay type: cell-based
# [15] = female, CD-1, mouse, iv, 15 mg/kg
# [16] = mouse, po, 30 mg/kg, Terminal t1/2, mouse
# Sequence of M. tuberculosis LeuRS (P9WFV1 whole entry): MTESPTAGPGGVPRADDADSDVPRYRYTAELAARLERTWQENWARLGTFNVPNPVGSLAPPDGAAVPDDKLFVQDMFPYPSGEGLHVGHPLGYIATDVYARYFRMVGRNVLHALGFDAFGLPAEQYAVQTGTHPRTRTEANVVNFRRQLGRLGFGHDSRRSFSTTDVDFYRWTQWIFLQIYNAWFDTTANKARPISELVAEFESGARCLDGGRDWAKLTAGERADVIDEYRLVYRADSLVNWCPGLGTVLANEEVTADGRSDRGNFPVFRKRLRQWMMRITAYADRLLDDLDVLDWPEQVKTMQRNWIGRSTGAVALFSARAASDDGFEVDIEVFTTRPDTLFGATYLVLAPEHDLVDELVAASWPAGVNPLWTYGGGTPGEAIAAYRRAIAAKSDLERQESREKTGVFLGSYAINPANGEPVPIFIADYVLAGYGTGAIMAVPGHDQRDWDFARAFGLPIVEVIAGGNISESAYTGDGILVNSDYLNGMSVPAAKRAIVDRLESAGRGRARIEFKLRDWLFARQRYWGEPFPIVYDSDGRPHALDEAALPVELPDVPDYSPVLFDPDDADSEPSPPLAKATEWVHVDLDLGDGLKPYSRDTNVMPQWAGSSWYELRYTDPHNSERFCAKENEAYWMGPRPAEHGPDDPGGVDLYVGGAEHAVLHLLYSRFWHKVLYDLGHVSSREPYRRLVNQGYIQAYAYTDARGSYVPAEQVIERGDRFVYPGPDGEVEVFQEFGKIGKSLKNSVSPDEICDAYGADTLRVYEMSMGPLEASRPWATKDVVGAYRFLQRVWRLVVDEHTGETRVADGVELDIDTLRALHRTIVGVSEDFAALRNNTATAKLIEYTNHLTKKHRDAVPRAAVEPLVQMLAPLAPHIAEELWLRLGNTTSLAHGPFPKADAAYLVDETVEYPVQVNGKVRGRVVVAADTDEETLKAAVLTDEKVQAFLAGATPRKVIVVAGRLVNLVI
compound,measurement,setting,value
CCOc1ccc(Br)c2c1B(O)OC2CN (stereo not shown) [Compound 11],IC50,[1],110 nM
same,improvement of MIC values over compound 1,[2]; M. tuberculosis H37Rv,more than 5 fold
same,MIC,[2],0.05 µg/mL
same,Kd,[3],40 nM
same,No. of sites,[3],1.02
same,ΔGap,[3],-10.0 kcal/mol
same,ΔHap,[3],-5.5 kcal/mol
same,−TΔSap,[3],-4.6 kcal/mol
same,fraction unbound,[4],0.5
same,EC50,[5],> 50000 nM
same,AUC(0-inf),[6]; [15],45800 ng·h/mL
same,Cmax,[6]; [15],18000 ng/mL
same,MRT,[6]; [15],3 h
same,Vd,[6]; [15],0.968 L/kg
same,clearance,[6]; [15],5.47 mL/min/kg
same,half-life,"[6]; female, CD-1, mouse, iv, 15 mg/kg, α-t1/2, mouse",0.09 h
same,half-life,"[6]; female, CD-1, mouse, iv, 15 mg/kg, β-t1/2, mouse",2.08 h
same,α-t1/2 % AUC,"[6]; mouse, 15 mg/kg",2 % AUC
same,β-t1/2 % AUC,"[6]; mouse, 15 mg/kg",98 % AUC
same,AUC(0-t),"[6]; mouse, po, 30 mg/kg",35900 ng·h/mL
same,Cmax,"[6]; mouse, po, 30 mg/kg",7200 ng/mL
same,Tmax,"[6]; mouse, po, 30 mg/kg",1 h
same,bioavailability,"[6]; mouse, po, 30 mg/kg",39%
same,half-life,[6]; [16],2.7 h
CCOc1cccc2c1B(O)OC2CN (stereo not shown) [Compound 1],IC50,[1]; read-out: IC50 M.tb LeuRS,280 nM
same,MIC,[2],0.26 µg/mL
same,EC50,[5],> 50000 nM
same,AUC(0-t),"[6]; CD-1, mouse, po, 30 mg/kg",15000 ng·h/mL
same,Cmax,"[6]; CD-1, mouse, po, 30 mg/kg",4330 ng/mL
same,bioavailability,"[6]; CD-1, mouse, po, 30 mg/kg",55%
same,MIC,"[7]; ATCC700084, M. smegmatis ATCC 700084, liquid culture",1 µg/mL
same,MIC,"[7]; ATCC700084, M. smegmatis RM1 leuS Δ421–462, liquid culture",> 256 µg/mL
"COc1c(N2C[C@@H]3CCCN[C@@H]3C2)c(F)cc2c(=O)c(C(=O)O)cn(C3CC3)c12 [Moxifloxacin, moxifloxacin, reference compound]",MIC values used in kill kinetics experiment,[2]; M. tuberculosis H37Rv,0.06 µg/mL
same,MIC,[8],0.08 µg/mL
CCOc1ccc(Br)c2c1B(O)O[C@@H]2CN [Compound 14],IC50,[1],80 nM
same,MIC values used in kill kinetics experiment,[2]; M. tuberculosis H37Rv,0.013 µg/mL
same,MIC,[2],0.02 µg/mL
same,EC50,[9],106000 ± 37500 nM
same,efficacy in murine model of acute TB infection,[10],more active at lower doses than linezolid
same,α-t1/2 % AUC,"[6]; mouse, 30 mg/kg",5 % AUC
same,β-t1/2 % AUC,"[6]; mouse, 30 mg/kg",95 % AUC
same,AUC(0-inf),"[6]; mouse, iv, 30 mg/kg",43700 ng·h/mL
same,Cmax,"[6]; mouse, iv, 30 mg/kg",17100 ng/mL
same,MRT,"[6]; mouse, iv, 30 mg/kg",4.7 h
same,Vd,"[6]; mouse, iv, 30 mg/kg",3.22 L/kg
same,clearance,"[6]; mouse, iv, 30 mg/kg",11.4 mL/min/kg
same,half-life,"[6]; mouse, iv, 30 mg/kg, α-t1/2, mouse",0.05 h
same,half-life,"[6]; mouse, iv, 30 mg/kg, β-t1/2, mouse",3.4 h
same,AUC(0-t),"[6]; mouse, po, 30 mg/kg",57600 ng·h/mL
same,Cmax,"[6]; mouse, po, 30 mg/kg",6300 ng/mL
same,Tmax,"[6]; mouse, po, 30 mg/kg",0.5 h
same,bioavailability,"[6]; mouse, po, 30 mg/kg",100%
same,half-life,[6]; [16],3.6 h
same,EC50,[11],21500 ± 6400 nM
same,EC50,[12],> 150000 nM
same,MIC,[8],0.2 µg/mL
same,reduction in CFU,[13],2.4 log10
same,in vitro kill kinetics profile,[14],very similar to that of the bacteriostatic protein synthesis inhibitor linezolid
